smiles,measurement,value
"C=CCN1C(=O)c2cccc3c(CNCCOC(=O)C4(C)CCCC5(C)C6CCC(C(C)C)=CC6=CCC45)ccc(c23)C1=O (stereo not shown) [Compound 17, 7-Isopropyl-1,4a-dimethyl-1,2,3,4,4a,4b,5,6,10,10a-decahydro-phenanthrene-1-carboxylic acid 2-[(2-allyl-1,3-dioxo-2,3-dihydro-1H-benzo[de]isoquinolin-6-yl)methylamino]ethyl ester]",melting point,64 to 66 °C
